Experimental data taken from patent publication US10883994B2, “Identification of cancer stem cells markers and use of same for diagnosis and treatment” (Tel HaShomer Medical Research Infrastructure and Services …, priority 2014, dated 2021).
Entries after “also recorded” stand apart in the source; their conditions may differ.

Legend:
[1] = target: T1, LOX (lysyl oxidase) in ATRT cells (Homo sapiens, UniProt P28300); experiment: LOX activity assay (Amplex Red fluorescence); assay type: biochemical; settings: 100 μM BAPN
T1 construct: endogenous in cells
T1 sequence (P28300 169-417): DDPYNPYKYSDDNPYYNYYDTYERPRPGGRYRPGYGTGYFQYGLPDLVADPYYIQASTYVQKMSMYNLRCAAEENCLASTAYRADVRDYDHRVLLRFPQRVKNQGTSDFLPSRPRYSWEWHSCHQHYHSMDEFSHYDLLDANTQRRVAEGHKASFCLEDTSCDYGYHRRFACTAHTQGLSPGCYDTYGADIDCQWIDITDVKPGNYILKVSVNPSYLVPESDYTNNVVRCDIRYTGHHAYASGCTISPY
Experimental: LOX Activity Assays: The LOX enzyme activity was measured using the Amplex Red fluorescence assay (AAA Bioquest, 15255), as previously described (15843371). The assay reaction mixture consisted of 50 mM sodium borate (pH 8.2), 1.2 M urea, 50 µM Amplex Red, 0.1 units/ml horseradish peroxidase, and 10 mM 1,5-diaminopentane (cadaverine) substrate. The protein samples were added to the reaction mix, in the presence or absence of 100 μM BAPN, which was then incubated at 37° C. for 30 minutes. The fluorescent product was measured at 590 nm using an […] microplate reader.

MRT cells (ATRT cells) [2] = experiment: Morphology of MRT/ATRT cells after BAPN treatment; assay type: cell-based, human
MRT cells (ATRT cells) [3] = experiment: Cell migration assay (scrape); assay type: cell-based, human; settings: 100 μM BAPN, 48 h
Experimental: Cell migration assay: Cells were grown overnight, after which the medium was changed and supplemented with 100 μM BAPN. After 48 hours, a scrape was made through the confluent monolayers with a plastic 1 ml pipette tip. Treated and control cells were then photographed at identical time points (24 and 48 hours).

[4] = system: Wilms' tumor (WT) Xn cells; experiment: MTS cell viability assay on Wilms' tumor Xn cells; assay type: cell-based, human; settings: Wilms' tumor Xn cells serially propagated in mice
Experimental: (§1) MTS—cell viability assay: 5×10^3 cells were plated in triplicates and grown in 96-well plates over-night. The following day the medium was changed and supplemented with various concentrations of BAPN and the cells were further incubated for 48 h. Cell proliferation was measured using CellTiter 96 Aqueous One Solution Cell Proliferation Assay (Promega) according to the manufacturer's instructions. Briefly, the cells were incubated with the MTS solution for 3 hours at 37° C. and absorbance at 492 nm was determined using a microplate reader. Three independent experiments were carried out.

[5] = system: ATRT Xn cells (MRT cells); experiment: MTS cell viability assay on MRT/ATRT Xn cells; assay type: cell-based, human; settings: 100 μM BAPN, 48 h
Experimental: as §1

[6] = intermediate Xn passage (P10) MRT cells

## N#CCCN [BAPN, β-Aminopropionitrile]
[1]
  LOX activity (in words): significantly inhibited LOX activity
[1]; P3 cells
  inhibition of LOX activity: 81%
[1]; P10 cells
  inhibition of LOX activity: 63%
MRT cells (ATRT cells) [2]; P2 cells
  morphological changes on ATRT cells: nuclear condensation and cell swallowing
MRT cells (ATRT cells) [2]; [6]
  morphological changes on MRT cells: nuclear condensation and cell swallowing
MRT cells (ATRT cells) [3]; P2 cells
  ATRT cell migration capacity compared to un-treated cells: significant inhibited
MRT cells (ATRT cells) [3]; [6]
  MRT cell migration capacity compared to un-treated cells: significant inhibited; also recorded: significantly inhibited
[4]
  effect on WT cell proliferation: no effect on WT cell proliferation
[5]; P2 Xn cells
  proliferation in comparison to UT cells (MTS cell viability): 47%
[5]; intermediate Xn passage (P10) cells, three different experiments
  proliferation (MTS cell viability): significantly reduced proliferation
